Test results taken from patent US20210251239A1 (priority 2018, published 2021).
Values after ≈ are worked out from the molar mass of the structure shown.

Assays:
Fusarium verticilloides = assay: MTT cell viability assay for determination of IC50 for chemical fungicides; format: cell-based; details: for IC50: Fusarium, read-out: IC50 for F. verticilloides
Description: (§1) Assays were carried out in 1.5 mL microcentrifuge tubes. The indicated fungicides were dissolved in DMSO at a stock concentration of 1 mg/mL. Enzymes were desalted into 50 mM MES buffer, pH 6.0 using a 200 mL Sephadex G25 column with 9.5 mL/min flowrate before adding to the germination assay. […] The reaction mixture without fungicide served as a negative inhibition control, and a reaction mixture containing 0.2 mg/mL mannase acid or 20 mg/mL M-PEG (1,2-propanediol) served as a positive inhibition control. The spore germination mixture was incubated at 27° C. for 3 days. At the end of the incubation period, 200 μL of 3-(4,5-dimethylthiazol-2-yl)-2,5-diphenyltetrazolium bromide (MTT) dye was added to the existing 400 μL of assay culture and was incubated for another 3 hr at 27° C. in the dark. The tubes were then centrifuged, and the supernatants were discarded. To the residue left in the tubes, 200 μL of DMSO was added to dissolve the formazan formed by the live fungal cells. The tubes were vortexed and centrifuged again. 100 μL of the supernatant from each tube was transferred into a separate well in a 96-well microtiter plate and absorbance was measured at 540 nm. Inhibition of fungal germination and growth by enzymes was determined relative to the uninhibited control for samples without chemical fungicide, and relative to the 50% inhibited cultures for samples containing each of the chemical fungicides tested.
(§2) Each fungicide was dissolved in DMSO at 1 mg/mL concentration, then added to the germination assay at final concentrations of 0, 0.01, 0.02, 0.04, 0.06, 0.08 mg/mL.

Fusarium virguliforme = format: cell-based
[1] = tested on: Colletotrichum gleosporoides; assay: MTT cell viability assay for determination of IC50 for chemical fungicides; format: cell-based; details: read-out: IC50 for C. gleosporoides
Description: as §1, §2

Septoria nodorum = format: cell-based
Fusarium graminearum = format: cell-based

| Compound | EC50 Enzyme (Fusarium virguliforme) | IC50 plus chemistry (Fusarium virguliforme) | IC50 [1] | IC50 (Fusarium verticilloides) | EC50 Enzyme (Septoria nodorum) | IC50 plus chemistry (Septoria nodorum) | also measured |
| --- | --- | --- | --- | --- | --- | --- | --- |
| propineb [Antracol (Propineb)] | – | – | – | – | – | – | IC50 for F. verticilloides (Fusarium verticilloides; 50% inhibition of germination and growth, fit IC50): ~300 µg/mL |
| lysozyme | >500 µg/mL | 2 µg/mL | – | – | – | – | – |
| OC(Cc1ccccc1Cl)(Cn1nc[nH]c1=S)C1(Cl)CC1 (centres unmarked) [Prothioconazole, prothioconazole] | – | – | 13 µg/mL (≈ 37.8 µM) | 22 µg/mL (≈ 63.9 µM) | – | – | – |
| CON=C(C(=O)OC)c1ccccc1CON=C(C)c1cccc(C(F)(F)F)c1 [Trifloxystrobin, trifloxystrobin] | – | – | 18 µg/mL (≈ 44.1 µM) | 6 µg/mL (≈ 14.7 µM) | – | – | – |
| catalase | – | – | – | – | 285 µg/mL | >500 µg/mL | – |
| glucose oxidase | <1 µg/mL | <1 µg/mL | – | – | <1 µg/mL | <1 µg/mL | EC50 Enzyme (Botrytis cinerea): <1 µg/mL; IC50 plus chemistry (Botrytis cinerea): <1 µg/mL; EC50 Enzyme (Fusarium graminearum): <1 µg/mL; IC50 plus chemistry (Fusarium graminearum): <1 µg/mL |
